The experiment concerns the target T1, thioredoxin reductase (TrxR) (Sus scrofa, UniProt Q9MYY8).
T1 construct: gene TXNRD1; TrxR purified from porcine brains
T1 sequence (Q9MYY8 1-499): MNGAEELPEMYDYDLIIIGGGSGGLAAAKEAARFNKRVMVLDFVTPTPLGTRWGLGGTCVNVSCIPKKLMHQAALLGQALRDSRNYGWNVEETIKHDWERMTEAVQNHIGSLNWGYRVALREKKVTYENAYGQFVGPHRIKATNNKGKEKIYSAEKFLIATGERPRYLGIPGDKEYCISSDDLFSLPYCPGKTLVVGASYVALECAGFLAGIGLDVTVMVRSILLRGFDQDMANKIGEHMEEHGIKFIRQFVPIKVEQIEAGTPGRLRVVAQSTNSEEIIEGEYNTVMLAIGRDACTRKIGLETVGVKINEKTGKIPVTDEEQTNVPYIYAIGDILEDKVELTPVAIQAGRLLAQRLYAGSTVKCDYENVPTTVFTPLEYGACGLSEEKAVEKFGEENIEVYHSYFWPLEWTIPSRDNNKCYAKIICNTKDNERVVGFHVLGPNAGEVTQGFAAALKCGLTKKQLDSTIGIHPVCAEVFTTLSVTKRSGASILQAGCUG
As to the kind of experiment: DTNB reduction assay with purified NADPH-reduced TrxR; supported by BIAM labeling and TOF LC/MS of C-terminal tetrapeptide adduct. Format: biochemical.

In paper PMC4872749, “EM23, a natural sesquiterpene lactone, targets thioredoxin reductase to activate JNK and cell death pathways in human cervical cancer cells” (Oncotarget, 2016) one finds IC50 data, which are given here for one compound.

Usually IC50 stands for the concentration needed to halve the response being measured. A lower IC50 goes with greater potency.

Compound `C=C(C)C(=O)OC1CC(C)=CC2(OC)C=C(C)C(O2)C2OC(=O)C(=C)C12` (stereo not shown) [EM23] registered an IC50 of 7.8 µM.
